According to ChEMBL document CHEMBL2069202, “Antiviral activity and synthesis of quaternized promazine derivatives against HSV-1” (Bioorg Med Chem Lett, 2012):
Calls of active or inactive are those of the source. No cut-off for these calls is given here.

Experiments:
Human alphaherpesvirus 1 [1] = experiment: Antiviral activity against HSV-1 infected in african green monkey Vero cells assessed as inhibition of viral replication after 48 hrs by GFP reduction assay; type: functional, organism-based
Human alphaherpesvirus 1 [2] = experiment: Antiviral activity against HSV-1 infected in african green monkey Vero cells assessed as inhibition of GFP gene expression after 48 hrs by RT-PCR analysis; type: functional, organism-based
Human alphaherpesvirus 1 [3] = experiment: Antiviral activity against HSV-1 infected in african green monkey Vero cells assessed as inhibition of viral replication at 50 uM after 48 hrs by GFP reduction assay; type: functional, organism-based
Human alphaherpesvirus 1 [4] = experiment: Antiviral activity against HSV-1 infected in african green monkey Vero cells assessed as inhibition of viral replication at 200 uM after 48 hrs by GFP reduction assay; type: functional, organism-based
Human alphaherpesvirus 1 [5] = experiment: Antiviral activity against HSV-1 infected in african green monkey Vero cells assessed as inhibition of viral replication at 48 uM after 48 hrs by GFP reduction assay; type: functional, organism-based
Human alphaherpesvirus 1 [6] = experiment: Antiviral activity against HSV-1 infected in african green monkey Vero cells assessed as inhibition of viral replication at 48 uM after 48 hrs by plaque reduction assay; type: functional, organism-based
Human alphaherpesvirus 1 [7] = experiment: Antiviral activity against HSV-1 infected in african green monkey Vero cells assessed as inhibition of viral ICP4 gene expression after 48 hrs by RT-PCR analysis; type: functional, organism-based
Human alphaherpesvirus 1 [8] = experiment: Antiviral activity against HSV-1 infected in african green monkey Vero cells assessed as inhibition of viral replication at 50 uM treated 2 hrs after post infection by GFP reduction assay; type: functional, organism-based
Human alphaherpesvirus 1 [9] = experiment: Antiviral activity against HSV-1 infected in african green monkey Vero cells assessed as inhibition of viral replication at 50 uM treated for 24 hrs measured 24 hrs after drug washout by GFP reduction assay; type: functional, organism-based
Human alphaherpesvirus 1 [10] = experiment: Antiviral activity against HSV-1 infected in african green monkey Vero cells assessed as inhibition of viral replication at 50 uM after 48 hrs by GFP reduction assay relative to acyclovir; type: functional, organism-based
Vero = experiment: Cytotoxicity against african green monkey Vero cells up to 200 uM; type: cell-based; conditions: chlorocebus sabaeus

C=CC[N+](C)(C)CCCN1c2ccccc2Sc2ccc(C(F)(F)F)cc21
inhibition (Human alphaherpesvirus 1 [1]): inactive

O[C@]12C=C(c3nccc4c3[nH]c3ccccc34)[C@@H]3CCN(CCCC/C=C\CC1)C[C@@]31C[C@@H]3/C=C\CCCCN3[C@H]12
inhibition (Human alphaherpesvirus 1 [2]): inactive

C[N+](C)(CC#N)CCCN1c2ccccc2Sc2ccc(C(F)(F)F)cc21
inhibition (Human alphaherpesvirus 1 [1]): inactive

C[N+](C)(CCCN1c2ccccc2Sc2ccc(C(F)(F)F)cc21)Cc1cccc(Cl)c1
inhibition (Human alphaherpesvirus 1 [3]): inactive
inhibition (Human alphaherpesvirus 1 [4]): Active

C#CC[N+](C)(C)CCCN1c2ccccc2Sc2ccccc21
inhibition (Human alphaherpesvirus 1 [1]): inactive

C#CC[N+](C)(C)CCCN1c2ccccc2Sc2ccc(C(F)(F)F)cc21
inhibition (Human alphaherpesvirus 1 [1]): inactive

C[N+](C)(CCCN1c2ccccc2Sc2ccc(C(F)(F)F)cc21)Cc1ccc(Cl)cc1.[Cl-]
inhibition (Human alphaherpesvirus 1 [5]): Active
inhibition (Human alphaherpesvirus 1 [6]): Active
inhibition (Human alphaherpesvirus 1 [7]): Active
inhibition (Human alphaherpesvirus 1 [2]): Active
inhibition (Human alphaherpesvirus 1 [8]): inactive
inhibition (Human alphaherpesvirus 1 [9]): inactive
inhibition (Human alphaherpesvirus 1 [10]): Active
Activity (Vero): Non-toxic

C[N+](C)(CCCN1c2ccccc2Sc2ccc(C(F)(F)F)cc21)Cc1ccccc1
inhibition (Human alphaherpesvirus 1 [1]): inactive

CCCC[N+](C)(C)CCCN1c2ccccc2Sc2ccc(C(F)(F)F)cc21
inhibition (Human alphaherpesvirus 1 [4]): Active

C[N+](C)(CCCN1c2ccccc2Sc2ccc(C(F)(F)F)cc21)Cc1ccccc1Cl
inhibition (Human alphaherpesvirus 1 [3]): inactive
inhibition (Human alphaherpesvirus 1 [4]): Active

Nc1nc2c(ncn2COCCO)c(=O)[nH]1
inhibition (Human alphaherpesvirus 1 [5]): Active
inhibition (Human alphaherpesvirus 1 [6]): Active
inhibition (Human alphaherpesvirus 1 [7]): Active
inhibition (Human alphaherpesvirus 1 [2]): Active
inhibition (Human alphaherpesvirus 1 [8]): Active
inhibition (Human alphaherpesvirus 1 [9]): Active
inhibition (Human alphaherpesvirus 1 [3]): Active
